Source: article PMC11562788, “Insights into the Hierarchical Assembly of a Chemically Diverse Peptide Hydrogel Derived from Human Semenogelin I” (ACS Nano, 2024)
Converted amounts (≈) assume the structure as drawn. “Also recorded” adds a separate entry of the source. Residues, ends and D or L forms follow the SMILES beside them.

Assays:
Assay type in all cases: physicochemical
[1] = SAXS/WAXS of fibrils, elliptical cylinder model fit; conditions: for Fibril axis ratio / Fibril cross-sectional area / Fibril minor radius (minor semiaxis): SAXS, elliptical cylinder model fit, 2.0 mM, day 7 at 21 °C
Protocol: Small- and wide-angle X-ray scattering (SAXS/WAXS) measurements were performed on a SAXSLabs Ganesha pinhole instrument (JJ X-ray System Aps) with an X-ray microsource (Xenocs) and a two-dimensional 300k Pilatus detector (Dectris Ltd., Switzerland). The wavelength, λ, used for all scattering experiments was 1.54 Å, and samples were measured at three sample-to-detector distances. All samples (200 μL) were loaded into a 1.5 mm diameter quartz capillary (Hilgenberg GmbH, Malsfeld, Germany), and the time-averaged scattering intensities were analyzed using a python code. The scattering intensity was corrected to an absolute scale by calibration against water. Supramolecular dimensions were extracted from SAXS data by using the SasView software and fitting the scattering curves to an elliptical-cylinder model (www.sasview.org).

[2] = Hydrogelation and gel appearance by visual inspection
Protocol: All FTIR measurements were collected on samples where a trifluoroacetate (TFA^–) to chloride ion exchange was performed to eliminate signals from the TFA^– carbonyl moiety in the amide I spectral region (Figure S1). FTIR spectra were collected for P0–P5 in D2O at six pD values (3.0, 5.0, 7.0, 8.0, 9.0, and 10.0) (Figures S2–S7). FTIR analysis for P6–P8 was performed at a pD of 8.0 (Figures S8–S10). The bulk of FTIR studies were performed at pD 8.0, as the optimum pH range for hydrogelation is 7–9 for both SgI38–48[28] and P0.
(§1) All samples were prepared in nonstick Eppendorf tubes (Axygen, Inc.). Prior to the final sample preparation (for all FTIR samples and when otherwise stated), the TFA counteranions present in the peptide sample after HPLC purification were exchanged for chloride using the following protocol: lyophilized peptide was dissolved in deionized D2O (1.0 mL). HCl was added at a molar ratio of 13.7:1 HCl:peptide. For the Phe^CN mutants, the sample was divided into two groups and lyophilized. One sample was then redissolved in H2O (to avoid obscuring the O–D stretches in the nitrile region) and the other in D2O (to avoid overlapping of the O-H bending vibrations in the amide I region) to a final concentration of 2.0 mM, unless otherwise specified. All other peptide samples were redissolved in D2O. The exchange of TFA^– to chloride may be verified by a lack of signal at 1672 cm^–1, seen in the IR spectrum for the deuterium-exchanged TFA salt of P3, where the carbonyl signal from TFA is well separated from the amide I carbonyl high frequency stretch at 1684 cm^–1 (Figure S1). On the day of the peptide sample preparation, D2O was placed in an Eppendorf tube, was then used as background when collecting data points (0 h, 48 h, 1 week, etc.), and was assumed to absorb the same amount of H2O over time as the peptide sample prepared on the same day. The concentration of the peptide solutions was verified with the UV–vis absorbance peak at 280 nm using a molar absorptivity of 2560 M^–1 cm^–1 for all sequences (P0–P7). The pH/pD of the samples was then corrected to 8.0 using small volumes of NaOH and HCl (or NaOD and DCl). After attaining the desired pH/pD, samples were incubated at ambient temperature (ca. 22 °C) and followed over 7 days (or as specified) to allow for hydrogelation.

[3] = Stability of P0 gel in solution by MALDI-TOF mass spectrometry; conditions: P0 in H2O pH 8.0, chloride salt 1.0 mM and trifluoroacetate salt 0.5 mM, ambient temperature, 2 weeks, MALDI-TOF/TOF MS
Protocol: The identity and purity of all peptides were verified by electrospray or matrix-assisted laser desorption/ionization time-of-flight (MALDI-TOF) mass spectrometry (Bryn Mawr College, PA, at the Chemical Center, Lund University, Lund, Sweden, or at the Laboratory for Biological Mass Spectrometry at Texas A&M University, College Station, TX). Mass spectra were typically acquired using an Autoflex Speed MALDI TOF/TOF mass spectrometer (Bruker Daltonics) in positive reflector mode. A 1 μL peptide sample was mixed with 0.5 μL matrix solution, consisting of 5 mg/ml α-cyano-4-hydroxy cinnamic acid, 80% acetonitrile, and 0.1% TFA, and added to a MALDI stainless steel plate. All spectra were externally calibrated using Peptide Calibration Standard II (Bruker Daltonics) containing 9 internal standard peptides. […]
All samples were prepared in nonstick Eppendorf tubes (Axygen, Inc.). […] The concentration of the peptide solutions was verified with the UV–vis absorbance peak at 280 nm using a molar absorptivity of 2560 M^–1 cm^–1 for all sequences (P0–P7). […]
Figure S16. P0 gel stability was evaluated by MALDI-TOF analysis. […] (A) A sample of P0 in H2O at pH 8.0, chloride salt (1.0 mM) and (B) trifluoroacetate salt (0.5 mM) were prepared for stability and analyzed by MALDI-TOF mass spectrometry. […]
degradation was observed over 2 weeks. […] The calculated mass for P0 [M+H]+ m/z = 1585.72. […]

[4] = Cryo-TEM of fibril formation and morphology
Protocol: Images were obtained at the National Center for High Resolution Electron Microscopy within Lund University on a JEOL JEM-2200 transmission electron microscopy instrument using a TVIPS F416 camera with an accelerator voltage of 200 kV. […] Grids were glow-discharged prior to sample preparation. Image processing was performed on the open-source software ImageJ (https://imagej.nih.gov) with the FIJI processing package.

Solubility in water = experiment: Solubility in water
[5] = FTIR amide I: β-sheet self-assembly; conditions: D2O, pD 8.0, 2.0 mM (P7, P8 and F40FCN 1.0 mM), ambient temperature
Protocol: as §1
FT IR was performed with a Bruker Vertex 70 spectrometer with a photovoltaic mercury cadmium telluride (MTC) detector. Before the spectral collection, the MCT detector was cooled with liquid nitrogen. A background spectrum (see hydrogel sample preparation above) was collected (6 μL of H2O or D2O), and the collection chamber was purged for 15 min before 6 μL of sample was loaded in between two CaF2 windows and separated by a 50-μm Teflon spacer in a 25-mm diameter demountable liquid cell (Harrick Scientific). After purging again, the IR spectrum was collected with 512 scans, with a resolution of 2 cm^–1, from 900 cm^–1 to 4000 cm^–1 at time t = 0 h, 24 h, 48 h, and 1 week (and sometimes longer) after sample constitution, processed using OPUS spectroscopy software, and plotted with Origin or KaleidaGraph.

| Fibril axis ratio ([1]; pH 8.0) | Fibril cross-sectional area ([1]; pH 8.0) [nm^2] | Fibril minor radius (minor semiaxis) ([1]; pH 8.0) [nm] | Optimum pH range for hydrogelation ([2]; P0) | Hydrogel formation on pH adjustment ([2]; P0 in H2O at pH 8.0, chloride salt 1.0 mM and trifluoroacetate salt 0.5 mM) | Diameter of fibril bundle (cryo-TEM) ([4]; after 7 days of incubation at 21 °C, bundle of approximately 5 fibrils) [nm] | Repeat distance of sharp SAXS peak at q = 0.305 Å^–1 ([1]; after 1 day of incubation at 21 °C) [nm] | Solubility in water (in words) (Solubility in water; P7 and P8 not tested above 1.0 mM at pH 8) | solubility (Solubility in water; pH 8.0, read-out: Solubility limit in water) [µM] | Presence of fibrils (cryo-TEM) ([4]; pH 8.0 water, 2.0 mM (P7 1.0 mM), incubation at 21 °C) | Fibril formation by SAXS scattering ([1]; 2.0 mM P0–P6, 1.0 mM P7, 7 days at 21 °C, pH 8.0) | Hydrogel formation ([2]; visual inspection, peptide in water/D2O, pH/pD 8.0, 2.0 mM (P7 1.0 mM), ambient temperature ca. 22 °C, up to 7 days) | SMILES | Gel appearance over time (clear or cloudy / precipitate) ([2]; visual inspection, 2.0 mM in D2O, pD 8.0, ambient temperature, 24 h to 6 days) | Degradation in solution [3] | Colloidal stability / phase separation of the hydrogel ([2]; visual inspection after hydrogel preparation, pH/pD 8.0, 2.0 mM, ambient temperature) | β-Sheet secondary structure (self-assembly) by FTIR amide I [5] |
| --- | --- | --- | --- | --- | --- | --- | --- | --- | --- | --- | --- | --- | --- | --- | --- | --- |
| 2.8 | 14.9 | 1.3 | 7–9 | soft gel immediately formed | – | – | – | – | – | – | – | CC[C@H](C)[C@H](NC(=O)[C@H](CO)NC(=O)[C@H](Cc1ccccc1)NC(=O)[C@H](CO)NC(=O)CNC(=O)[C@H](CCCCN)NC(C)=O)C(=O)N[C@@H](CCC(N)=O)C(=O)N[C@@H](Cc1ccc(O)cc1)C(=O)N[C@H](C(=O)N[C@@H](Cc1ccc(O)cc1)C(=O)N[C@@H](Cc1c[nH]cn1)C(=O)N[C@H](C(=O)N[C@@H](CC(=O)O)C(N)=O)C(C)C)[C@@H](C)O [P0] (Ac-KGSFSIQYTYHVD-NH2) | usually yields a clear gel upon preparation but occasionally turns cloudy | No appreciable, if any; also recorded: No degradation | – | – |
| 1.9 | 65.0 | 3.3 | – | – | ~10 | 2.1 | – | – | – | – | – | CC[C@H](C)[C@H](NC(C)=O)C(=O)N[C@@H](CCC(N)=O)C(=O)N[C@@H](Cc1ccc(O)cc1)C(=O)N[C@H](C(=O)N[C@@H](Cc1ccc(O)cc1)C(=O)N[C@@H](Cc1c[nH]cn1)C(=O)N[C@H](C(=O)N[C@@H](CC(=O)O)C(N)=O)C(C)C)[C@@H](C)O [P5] (Ac-IQYTYHVD-NH2) | – | – | colloidally unstable and undergoes phase separation | – |
| – | – | – | – | – | – | – | low solubility | 1000 (≈ 838 µg/mL) | contains no fibrils | no significant scattering is observed | inability of P7 to form a hydrogel | CC(=O)N[C@@H](Cc1ccc(O)cc1)C(=O)N[C@H](C(=O)N[C@@H](Cc1ccc(O)cc1)C(=O)N[C@@H](Cc1c[nH]cn1)C(=O)N[C@H](C(=O)N[C@@H](CC(=O)O)C(N)=O)C(C)C)[C@@H](C)O [P7] (Ac-YTYHVD-NH2) | – | – | – | no sign of a β-sheet secondary structure; also recorded: unstructured |
